Data: PubChem BioAssay AID256 (DTP/NCI, 2004)
“And” between values parts separate entries of the source, which are not always exact repeats. Equal entries are not always repeated. Toxic doses and inconclusive results are not listed. The calls were made as follows: active = survival T/C of 150% or more; inactive = T/C below 125% in these data.

System: CD2F1 mice, L1210 leukemia ip, survival T/C
Test: NCI In Vivo Anticancer Drug Screen. Data for tumor model L1210 Leukemia (intraperitoneal) in CD2F1 (CDF1) mice
Conditions: endpoint: mean survival time, higher = longer survival
Method in brief: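 Implant tumor; dose compound or vehicle; measure endpoint in both groups; report treated divided by control.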

[1] = dose: 25.0 mg/kg/injection, schedule: Q01DX009 (ip), vehicle: saline with Tween-80
[2] = dose: 50.0 mg/kg/injection, schedule: Q01DX009 (ip), vehicle: saline with Tween-80
[3] = dose: 100.0 mg/kg/injection, schedule: Q01DX009 (ip), vehicle: saline with Tween-80
[4] = dose: 200.0 mg/kg/injection, schedule: Q01DX009 (ip), vehicle: saline with Tween-80
[5] = dose: 400.0 mg/kg/injection, schedule: Q01DX009 (ip), vehicle: saline with Tween-80
[6] = dose: 100.0 mg/kg/injection, schedule: Q04DX002 (ip), vehicle: saline with Tween-80
[7] = dose: 200.0 mg/kg/injection, schedule: Q04DX002 (ip), vehicle: saline with Tween-80
[8] = dose: 400.0 mg/kg/injection, schedule: Q04DX002 (ip), vehicle: saline with Tween-80
[9] = dose: 25.0 mg/kg/injection, schedule: Q04DX003 (ip), vehicle: saline with Tween-80
[10] = dose: 50.0 mg/kg/injection, schedule: Q04DX003 (ip), vehicle: saline with Tween-80
[11] = dose: 100.0 mg/kg/injection, schedule: Q04DX003 (ip), vehicle: saline with Tween-80
[12] = dose: 200.0 mg/kg/injection, schedule: Q04DX003 (ip), vehicle: saline with Tween-80
[13] = dose: 400.0 mg/kg/injection, schedule: Q04DX003 (ip), vehicle: saline with Tween-80

Measured: T/C

c1ccc([As]2[As](c3ccccc3)[As](c3ccccc3)[As]2c2ccccc2)cc1 (stereo not given)
inactive: dose: 5.0 mg/kg/injection, schedule: Q01DX001 (ip), vehicle: saline 101 % of control | dose: 10.0 mg/kg/injection, schedule: Q01DX001 (ip), vehicle: saline 108 % of control | dose: 20.0 mg/kg/injection, schedule: Q01DX001 (ip), vehicle: saline 111 % of control | dose: 40.0 mg/kg/injection, schedule: Q01DX001 (ip), vehicle: saline 113 % of control | dose: 80.0 mg/kg/injection, schedule: Q01DX001 (ip), vehicle: saline 119 % of control

O=S(=O)(O)c1ccc(O)c(S(=O)(=O)O)c1
inactive: dose: 100.0 mg/kg/injection, schedule: Q01DX001 (ip), vehicle: saline 97 % of control | dose: 200.0 mg/kg/injection, schedule: Q01DX001 (ip), vehicle: saline 101 % of control | dose: 400.0 mg/kg/injection, schedule: Q01DX001 (ip), vehicle: saline 97 % of control

C/C=C/c1cc2c(c(=O)o1)C(=O)[C@@H](O)[C@H](C)O2
inactive: dose: 6.25 mg/kg/injection, schedule: Q01DX009 (ip), vehicle: saline with Tween-80 101 % of control | dose: 12.5 mg/kg/injection, schedule: Q01DX009 (ip), vehicle: saline with Tween-80 105 % of control | [1] 97 % of control | [2] 101 % of control | [3] 113 % of control

O=C(O)c1cc2ccc(Cl)cc2c2cc(C(F)(F)F)ccc12
inactive: dose: 18.8 mg/kg/injection, schedule: Q01DX009 (ip), vehicle: saline 97 % of control | dose: 37.5 mg/kg/injection, schedule: Q01DX009 (ip), vehicle: saline 111 % of control | dose: 75.0 mg/kg/injection, schedule: Q04DX003 (ip), vehicle: saline 95 % of control

c1ccc2c3c(ccc2c1)OCN(C12CC4CC(CC(C4)C1)C2)C3
inactive: [3] 96 % of control | [4] 102 % of control | [5] 90 % of control

N#C/C(=C\C1CCC2OCOC2C1)C1CCC([N+](=O)[O-])CC1 (stereo not given)
inactive: [6] 97 % of control | [7] 87 % of control | [8] 91 % of control

CCOC(=O)C(=Cc1ccc(C=C(C(=O)OCC)C(=O)OCC)cc1)C(=O)OCC
inactive: dose: 50.0 mg/kg/injection, schedule: Q01DX009 (ip), vehicle: Klucel (hydroxypropylcellulose) (HPC) 95 % of control | dose: 100.0 mg/kg/injection, schedule: Q01DX009 (ip), vehicle: Klucel (hydroxypropylcellulose) (HPC) 95 % of control | dose: 200.0 mg/kg/injection, schedule: Q01DX009 (ip), vehicle: Klucel (hydroxypropylcellulose) (HPC) 89 % of control

C=C1CC(=O)N(c2ccc(OC)cc2)C1=O
inactive: [9] 100 % of control | [10] 107 % of control | [11] 104 % of control

O=C(O)c1ccc(C(=O)O)c(C(=O)O)c1.[NH-]C1CCCCC1[NH-].[Pd+2]
inactive: dose: 9.36 mg/kg/injection, schedule: Q04DX003 (ip), vehicle: sodium bicarbonate 98 % of control | dose: 18.75 mg/kg/injection, schedule: Q04DX003 (ip), vehicle: sodium bicarbonate 101 % of control | dose: 75.0 mg/kg/injection, schedule: Q04DX003 (ip), vehicle: sodium bicarbonate 101 % of control | dose: 150.0 mg/kg/injection, schedule: Q04DX003 (ip), vehicle: sodium bicarbonate 101 % of control

Cc1cc(C)c(C)c(C(O)(C(=O)O)c2ccccc2)c1 (stereo not given)
inactive: [3] 100 % of control | [11] 97 % of control | [4] 88 % of control | [12] 101 % of control | [5] 96 % of control | [13] 92 % of control

CCC/C(=N\Nc1ccc([N+](=O)[O-])cc1[N+](=O)[O-])c1ccccc1
inactive: [1] 94 % of control | [9] 104 % of control | [2] 105 % of control | [10] 115 % of control | [3] 94 % of control | [11] 98 % of control

Cc1cc(Br)ccc1N
inactive: [11] 97 % of control | [12] 96 % of control | [13] 97 % of control

CCCCCCCCCC(C(=O)OCC)(C(=O)OCC)C1CCCC1
inactive: dose: 100.0 mg/kg/injection, schedule: Q01DX001 (ip), vehicle: saline sonified 106 % of control | [11] 100 % of control | dose: 200.0 mg/kg/injection, schedule: Q01DX001 (ip), vehicle: saline sonified 100 % of control | [12] 100 % of control | dose: 400.0 mg/kg/injection, schedule: Q01DX001 (ip), vehicle: saline sonified 90 % of control | [13] 97 % of control

CS(=O)(=O)OC1CCS(=O)(=O)c2ccccc21 (stereo not given)
inactive: dose: 100.0 mg/kg/injection, schedule: Q01DX001 (ip), vehicle: carboxymethylcellulose (CMC) 97 % of control | dose: 200.0 mg/kg/injection, schedule: Q01DX001 (ip), vehicle: carboxymethylcellulose (CMC) 97 % of control | dose: 400.0 mg/kg/injection, schedule: Q01DX001 (ip), vehicle: carboxymethylcellulose (CMC) 97 % of control

CCNC(=O)C(=O)NCC
inactive: [6] 103 % of control | [7] 100 % of control | [8] 103 % of control

Cc1cc(CC(O)(C(F)(F)F)C(F)(F)F)cc(C(=O)O)n1
inactive: [11] 98 % of control | [12] 107 % of control | [13] 87 % of control

C=C(C)CNC1=C(C)C(=O)C2=C(C1=O)[C@H](COC(N)=O)[C@]1(OC)[C@@H]3N[C@@H]3CN21
inactive: dose: 1.5 mg/kg/injection, schedule: Q01DX001 (ip), vehicle: distilled water + Tween-80 119 % of control | dose: 3.0 mg/kg/injection, schedule: Q01DX001 (ip), vehicle: distilled water + Tween-80 117 % of control | dose: 12.0 mg/kg/injection, schedule: Q01DX001 (ip), vehicle: distilled water + Tween-80 101 % of control

COC(=O)C12CCc3ccoc3C1CCC1(C)C(C)=CCCC12 (stereo not given)
inactive: dose: 50.0 mg/kg/injection, schedule: Q04DX002 (ip), vehicle: other 115 % of control | dose: 100.0 mg/kg/injection, schedule: Q04DX002 (ip), vehicle: other 107 % of control | dose: 200.0 mg/kg/injection, schedule: Q04DX002 (ip), vehicle: other 107 % of control

FCCc1ccccc1
inactive: dose: 50.0 mg/kg/injection, schedule: Q04DX003 (ip), vehicle: saline sonified 98 % of control | dose: 100.0 mg/kg/injection, schedule: Q01DX001 (ip), vehicle: saline with Tween-80 97 % of control and 94 % of control | dose: 100.0 mg/kg/injection, schedule: Q04DX003 (ip), vehicle: saline sonified 98 % of control | dose: 200.0 mg/kg/injection, schedule: Q01DX001 (ip), vehicle: saline with Tween-80 95 % of control | dose: 200.0 mg/kg/injection, schedule: Q04DX003 (ip), vehicle: saline sonified 98 % of control | dose: 400.0 mg/kg/injection, schedule: Q01DX001 (ip), vehicle: saline with Tween-80 103 % of control and 94 % of control

CCCCN(C)N=Nc1ccc(C(N)=O)cc1
inactive: dose: 18.75 mg/kg/injection, schedule: Q01DX009 (ip), vehicle: Klucel (hydroxypropylcellulose) (HPC) 107 % of control | dose: 37.5 mg/kg/injection, schedule: Q01DX009 (ip), vehicle: Klucel (hydroxypropylcellulose) (HPC) 113 % of control | dose: 75.0 mg/kg/injection, schedule: Q01DX009 (ip), vehicle: Klucel (hydroxypropylcellulose) (HPC) 121 % of control | dose: 150.0 mg/kg/injection, schedule: Q01DX009 (ip), vehicle: Klucel (hydroxypropylcellulose) (HPC) 106 % of control

c1ccc2[nH]c(CCCCCCCCc3nc4ccccc4[nH]3)nc2c1
inactive: [3] 102 % of control | [4] 104 % of control
